Patent US20240066057A1, “METHOD FOR TREATING PAIN USING VANADIUM COMPOUNDS” (HUNAN FANGSHENGTAI MEDICAL TECHNOLOGY CO., LTD, priority 2020, published 2024)

Tests used:
[1] = tested on: Kunming mice with CFA-induced inflammation; experiment: Effective concentration and plateau experiment of vanadium compounds, tail vein injection, mouse pain model; format: in vivo; settings: for Duration / Maximum analgesic intensity (mean) / Onset time: 6 samples
[2] = tested on: Kunming mice with CFA-induced inflammation; experiment: Von Frey test (50% paw withdrawal threshold) in CFA-induced inflammatory pain mouse model; format: in vivo
Method: 10 μL of complete Freund's adjuvant (CFA) was injected into the left hind foot of mice (♂ Kunming mice, 22 g to 40 g) to induce inflammation. 24 hours after the injection, a Von Frey test was performed to determine a pain threshold. That is, under the guidance of Dixon's Up-Down method, Von Frey fibers were used to induce the mechanical paw withdrawal of the mice, and data were collected and calculated to obtain their 50% paw withdrawal thresholds (paw withdrawal threshold or PWT for short, i.e. pain threshold). Mice were then divided into different groups, including a normal saline group, a positive control group, and a drug group, which were intraperitoneally injected with normal saline, an aspirin (acetylsalicylic acid, or ASA) solution and a solution of compound for testing respectively. A Von Frey test was then performed to monitor changes in pain threshold.
Mice were divided into three groups: a blank control group, an aspirin (ASA) group, and a drug group. In blank control group, the mice were given normal saline, deionized water or deionized water containing ≤5% DMSO at the same volume as that in the drug group. In ASA group, the mice were given the known analgesic drug ASA as the positive control for tested compounds. In drug group, the mice were given compounds for testing accordingly. Due attention was paid to observe whether the pain threshold rose, the period during which the rise was maintained and the magnitude of the rise, after the injection of a tested compound solution.

[3] = Plateau experiment, dose (vanadium) A5/G3 0.25, A1/G1/H1 0.49, A4/G2/H2 0.97, H3 1.9 mg/kg, listed as A4
[4] = Effective concentration table, 8.2 × 10^−4 mg/kg
[5] = Example 14, intraperitoneal injection, L about 0.97 mg/kg (atomic mass of vanadium)
[6] = Example 3, intraperitoneal injection, A1 0.97 mg/kg (atomic mass of vanadium), S about 250 mg/kg
[7] = intraperitoneal injection, doses as in Examples 3-9
[8] = intraperitoneal injection, doses as in Examples 3-9, most of the time after onset
[9] = Plateau experiment, dose (vanadium) A5/G3 0.25, A1/G1/H1 0.49, A4/G2/H2 0.97, H3 1.9 mg/kg, listed as A1
[10] = Example 13, intraperitoneal injection, K about 0.97 mg/kg (atomic mass of vanadium)
[11] = Plateau experiment, dose (vanadium) A5/G3 0.25, A1/G1/H1 0.49, A4/G2/H2 0.97, H3 1.9 mg/kg, 1.9 mg/kg
[12] = Plateau experiment, dose (vanadium) A5/G3 0.25, A1/G1/H1 0.49, A4/G2/H2 0.97, H3 1.9 mg/kg, listed as G3
[13] = Example 12, intraperitoneal injection, J about 0.97 mg/kg (atomic mass of vanadium)
[14] = Example 11 (BEOV), intraperitoneal injection, I about 0.97 mg/kg (atomic mass of vanadium)
[15] = Example 5, intraperitoneal injection, C 1.9 mg/kg (atomic mass of vanadium), S about 250 mg/kg
[16] = intraperitoneal injection, conclusions of Examples 3-9
[17] = intraperitoneal injection, versus aspirin control group
[18] = Example 6, intraperitoneal injection, D 1.9 mg/kg, S about 250 mg/kg, listed as D
[19] = Example 11 (BMOV), intraperitoneal injection, H1 about 0.97 mg/kg (atomic mass of vanadium)
[20] = Plateau experiment, dose (vanadium) A5/G3 0.25, A1/G1/H1 0.49, A4/G2/H2 0.97, H3 1.9 mg/kg, listed as H1
[21] = Plateau experiment, dose (vanadium) A5/G3 0.25, A1/G1/H1 0.49, A4/G2/H2 0.97, H3 1.9 mg/kg, listed as H2
[22] = Plateau experiment, dose (vanadium) A5/G3 0.25, A1/G1/H1 0.49, A4/G2/H2 0.97, H3 1.9 mg/kg, listed as A5
[23] = Example 15, intraperitoneal injection, M about 0.97 mg/kg (atomic mass of vanadium)
[24] = Plateau experiment, dose (vanadium) A5/G3 0.25, A1/G1/H1 0.49, A4/G2/H2 0.97, H3 1.9 mg/kg, listed as G2

[Na+].[Na+].[Na+].[O]=[V]([O-])([O-])[O-] [Solution A4, Sodium orthovanadate]
Duration [1, 3]: <60 min
Maximum analgesic intensity (mean) [1, 3]: ~0.30 g

O=S(=O)([O-])[O-].[O]=[V+2] [Solution G4, Vanadyl sulfate]
Duration [1, 4]: <60 min
Onset time [1, 4]: 0 to 15 min

O=C([O-])C(=O)[O-].[O]=[V+2] [Solution L, Vanadyl oxalate]
Duration [2, 5]: >60 min
Onset time [2, 5]: 15 to 30 after injection min

[Na+].[Na+].[Na+].[O]=[V]([O-])([O-])[O-] [Solution A1, Sodium orthovanadate]
Duration [2, 6]: >60 min
Onset time [2, 6]: 30 to 45 after injection min
Duration ([2]; Example 4, intraperitoneal injection, A1 0.97, A2 0.19, A3 0.097 mg/kg (atomic mass of vanadium)): >60 min
Onset time ([2]; Example 4, intraperitoneal injection, A1 0.97, A2 0.19, A3 0.097 mg/kg (atomic mass of vanadium), listed as A1): 30 to 45 after injection min
Time after injection at which the pain threshold returned to the baseline value [2, 7]: > 90 min
Pain thresholds / analgesic intensity compared with the S (ASA, aspirin) group [2, 8]: generally higher than those of the mice in the S group
Duration [1, 9]: >60 min
Maximum analgesic intensity (mean) [1, 9]: ~0.55 g

[Na+].[Na+].[Na+].[O]=[V]([O-])([O-])[O-] [Solution A2, Sodium orthovanadate]
Onset time ([2]; Example 4, intraperitoneal injection, A1 0.97, A2 0.19, A3 0.097 mg/kg (atomic mass of vanadium), listed as A2): 30 to 45 after injection min

Bis(acetylacetonato)oxovanadium (IV) [Solution K]
Duration [2, 10]: >60 min
Onset time [2, 10]: 15 to 30 after injection min

Cc1occc(=O)c1[O-].Cc1occc(=O)c1[O-].[O]=[V+2] [Solution H3, bis(maltolato)oxovanadium (IV)]
Duration [1, 11]: ≤60 min
Maximum analgesic intensity (mean) [1, 11]: 0.48 g

O=S(=O)([O-])[O-].[O]=[V+2] [Solution G, Vanadyl sulfate]
Minimum effective dose ([1]; mice): about 1.0×10^−3 mg/kg
Blood concentration in mice equivalent to the plateau dose ([1]; plateau dose 0.49 mg/kg): 140 µM

O=S(=O)([O-])[O-].[O]=[V+2] [Solution G3, Vanadyl sulfate]
Duration [1, 12]: >60 min
Maximum analgesic intensity (mean) [1, 12]: ~0.46 g

[O]=[V-2]12([O]C3=COC(CO)=CC3=[O+]1)[O]C1=COC(CO)=CC1=[O+]2 [Solution J, bis(kojato)oxovanadium (IV)]
Duration [2, 13]: >60 min
Onset time [2, 13]: 15 to 30 after injection min

bis(ethylmaltolato)oxovanadium (IV) [Solution I]
Duration [2, 14]: >60 min
Onset time [2, 14]: 15 to 30 after injection min

Cc1occc(=O)c1[O-].Cc1occc(=O)c1[O-].[O]=[V+2] [Solution H, bis(maltolato)oxovanadium (IV)]
Plateau dose ([1]; mice, based on vanadium): ≥ 0.97 mg/kg

Cis-bis(maltolato)methoxyoxovanadium (V) [Solution C]
Duration [2, 15]: about 60 min
Onset time [2, 15]: 15 to 30 after injection min
Analgesic effect [2, 16]: has an analgesic effect
Time after injection at which the pain threshold returned to the baseline value [2, 7]: 90 min
Pain thresholds / analgesic intensity compared with the S (ASA, aspirin) group [2, 8]: comparable to those of the mice, boosted by the solution S, in the S group
Effective duration compared with aspirin (ASA) [2, 17]: longer than that of aspirin

Sodium metavanadate [Solution D]
Duration [2, 18]: >60 min
Onset time [2, 18]: 0 to 15 after injection min
Duration ([2]; Example 6, intraperitoneal injection, D 1.9 mg/kg, S about 250 mg/kg, listed as metavanadate): > 60 min
Analgesic effect [2, 16]: has an analgesic effect
Time after injection at which the pain threshold returned to the baseline value [2, 7]: ~90 min
Pain thresholds / analgesic intensity compared with the S (ASA, aspirin) group [2, 8]: greater than or comparable to those of the mice, boosted by the solution S, in the S group
Effective duration compared with aspirin (ASA) [2, 17]: longer than that of aspirin

Cc1occc(=O)c1[O-].Cc1occc(=O)c1[O-].[O]=[V+2] [Solution H1, bis(maltolato)oxovanadium (IV)]
Duration [2, 19]: >60 min
Onset time [2, 19]: 0 to 15 after injection min
Duration [1, 20]: ≤60 min
Maximum analgesic intensity (mean) [1, 20]: 0.33 g

Cc1occc(=O)c1[O-].Cc1occc(=O)c1[O-].[O]=[V+2] [Solution H2, bis(maltolato)oxovanadium (IV)]
Duration [1, 21]: >60 min
Maximum analgesic intensity (mean) [1, 21]: 0.54 g

[Na+].[Na+].[Na+].[O]=[V]([O-])([O-])[O-] [Solution A5, Sodium orthovanadate]
Duration [1, 22]: >60 min
Maximum analgesic intensity (mean) [1, 22]: ~0.45 g

[Na+].[Na+].[Na+].[O]=[V]([O-])([O-])[O-] [Solution A3, Sodium orthovanadate]
Onset time ([2]; Example 4, intraperitoneal injection, A1 0.97, A2 0.19, A3 0.097 mg/kg (atomic mass of vanadium), 0.097 mg/kg): 30 to 45 after injection min

potassium dioxo(citrato)vanadate (V) [Solution F]
Duration ([2]; mouse, in vivo): >60 min
Onset time ([2]; mouse, in vivo): 15 to 30 after injection min
Analgesic effect ([2]; mouse, in vivo, ip): has an analgesic effect
Effective duration compared with aspirin (ASA) ([2]; mouse, in vivo, ip): longer than that of aspirin
Pain thresholds / analgesic intensity compared with the S (ASA, aspirin) group ([2]; mouse, in vivo, ip): higher than those of the mice, boosted by the solution S, in the S group
Time after injection at which the pain threshold returned to the baseline value ([2]; mouse, in vivo, ip): > 90 min

O=C(O)c1ccccn1.O=C(O)c1ccccn1.[O]=[V] [Solution M, Bis(picolinato)oxovanadium (IV)]
Duration [2, 23]: >60 min
Onset time [2, 23]: 15 to 30 after injection min

O=S(=O)([O-])[O-].[O]=[V+2] [Solution G2, Vanadyl sulfate]
Duration [1, 24]: no obvious difference
Maximum analgesic intensity (mean) [1, 24]: ~0.49 g

[Na+].[Na+].[Na+].[O]=[V]([O-])([O-])[O-] [Solution A6, Sodium orthovanadate]
Duration [1, 4]: <60 min
Onset time [1, 4]: 0 to 15 min
